pIC50: −log10 of the molar value.
Key:
recombinant human DHODH = target: T1, recombinant human DHODH (Homo sapiens, UniProt Q02127); experiment: Inhibition assay of DHODH activity (human enzyme); type: biochemical; conditions: recombinant human DHODH; class symbols, key in nM; read-out: human IC50-Value
T1 construct: Prof; M. Löffler, Marburg, Germany (gift)
Description: (§1) The standard assay mixture contained 50 μM decyclo ubichinone, 100 μM dihydroorotate, 60 μM 2,6-dichloroindophenol, as well as 20 mU DHODH. The volume activity of the recombinant enzyme used was 30 U/ml. Measurements were conducted in 50 mM TrisHCl (150 mM KCl, 0.1% Triton X-100, pH 8.0) at 30° C. in a final volume of 1 ml. The components were mixed, and the reaction was started by adding dihydroorotate. The course of reaction was followed by spectrophotometrically measuring the decrease in absorption at 600 nm for […].
(§2) Inhibitory studies were conducted in a standard assay with additional variable amounts of inhibitor. […] These investigations were carried out with recombinant human as well as with recombinant murine DHODH provided by Prof. M. Löffler, Marburg, Germany [M. Löffler, Chem. Biol. Interact.

recombinant murine DHODH = target: T2, recombinant murine DHODH (Mus musculus, UniProt O35435); experiment: Inhibition assay of DHODH activity (murine enzyme); type: biochemical; conditions: class symbols, key in nM
T2 construct: Prof; M. Löffler, Marburg, Germany (gift)
Description: as §1, §2

DHODH = DHODH (Rattus norvegicus, UniProt Q63707); experiment: Inhibition assay of DHODH activity (column headed 'rate'); type: biochemical; conditions: class symbols, key in nM
Description: as §1, §2

[1] = system: human lymphocyte cell proliferation; experiment: Human lymphocyte cell proliferation (FIG. 1 legend); type: cell-based; conditions: concentration of 100 μM
[2] = system: Human peripheral blood mononuclear cells (PBMC), T-cell proliferation; experiment: Proliferation assay of human T-cells (PHA-stimulated PBMC, BrdU ELISA); type: cell-based; conditions: PHA 20 μg/ml, 48 hours
Description: Human peripheral blood mononuclear cells (PBMC) were obtained from healthy volunteers and transferred to RPM11640 cell culture medium containing 10% dialyzed fetal calf serum. 80,000 cells per well were pipetted into a 96-well plate and phytohemagglutinin (PHA) was added in phosphate buffered saline to a final concentration of 20 μg/ml to stimulate T-cell proliferation. Vidofludimus was added in dimethyl sulfoxide (DMSO, final concentration: 0.1 Vol %) to final concentrations ranging from 20 nM to 50 μM. After incubation for 48 hours, cell proliferation was quantified using the “cell proliferation ELISA BrdU” (Roche) according to the manufacturer's instructions. […] (see FIG. 1).

[3] = Dynamic vapor sorption (water uptake); type: physicochemical
Description: DVS (SMS): Surface Measurement Systems Ltd. DVS-1 water vapour sorption analyzer. The sample is placed on a platinum sample pan and allowed to equilibrate at a given relative humidity (r.h.), usually 50% r.h. Then, a pre-defined humidity program was started with a scanning rate of 5% r.h. change per hour. First step: from 50% r.h. to 0% r.h. (in case of a possibly hydrate as starting material 50 to 95% r.h.), second step: from 0% to 95% r.h. (in case of a possibly hydrate as starting material 95 to 0% r.h.)

[4] = Long-term stability, 18 months storage, HPLC; type: physicochemical
Description: HPLC: HPLC was performed with a Dionex UltiMate® 3000 liquid chromatograph comprising a solvent Rack, a vacuum degasser, a binary pump (mikro), a static mixer (500 μl), an autosampler, a 25 μl sample loop, a 100 μl syringe, a column oven and a DAD detector (semimicro measuring cell), which was set up for UV analysis. Data analysis was done with Chromeleon® 6.80 SP3. Compounds were separated at 30° C. on a Phenomenex Onyx™ Monolithic C18 50×2 mm column. The injection volume was 2 μl and the detection wavelength was 305 nm. As mobile phase, a gradient of 0.1% formic acid in HPLC grade water/acetonitrile was used, starting at a concentration of 5% acetonitrile. The starting concentration was held for 1 minute, then the gradient was ramped linearly to 95% acetonitrile over the course of 2 min, held for 0.7 min at 95% acetonitrile, after which it was returned to 5% acetonitrile within 0.1 min and kept constant for 0.7 min to re-equilibrate the column. The mobile phase flow rate was 1.5 ml/min.
The compounds were stored for 18 months at ambient conditions (20-25° C., 30-60% relative humidity) and subsequently analysed by HPLC for purity.

T2 sequence (O35435 whole entry): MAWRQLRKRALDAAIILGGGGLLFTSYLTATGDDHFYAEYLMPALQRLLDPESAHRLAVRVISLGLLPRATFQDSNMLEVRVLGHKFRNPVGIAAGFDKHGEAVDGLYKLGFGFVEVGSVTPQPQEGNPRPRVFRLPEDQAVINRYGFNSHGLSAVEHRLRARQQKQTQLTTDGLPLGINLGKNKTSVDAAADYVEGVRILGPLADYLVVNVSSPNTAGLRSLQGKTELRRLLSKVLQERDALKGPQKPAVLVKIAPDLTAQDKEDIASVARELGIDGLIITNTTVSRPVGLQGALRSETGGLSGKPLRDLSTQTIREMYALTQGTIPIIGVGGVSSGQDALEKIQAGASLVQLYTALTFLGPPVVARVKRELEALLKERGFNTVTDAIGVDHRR
Sequence of DHODH (Q63707 whole entry): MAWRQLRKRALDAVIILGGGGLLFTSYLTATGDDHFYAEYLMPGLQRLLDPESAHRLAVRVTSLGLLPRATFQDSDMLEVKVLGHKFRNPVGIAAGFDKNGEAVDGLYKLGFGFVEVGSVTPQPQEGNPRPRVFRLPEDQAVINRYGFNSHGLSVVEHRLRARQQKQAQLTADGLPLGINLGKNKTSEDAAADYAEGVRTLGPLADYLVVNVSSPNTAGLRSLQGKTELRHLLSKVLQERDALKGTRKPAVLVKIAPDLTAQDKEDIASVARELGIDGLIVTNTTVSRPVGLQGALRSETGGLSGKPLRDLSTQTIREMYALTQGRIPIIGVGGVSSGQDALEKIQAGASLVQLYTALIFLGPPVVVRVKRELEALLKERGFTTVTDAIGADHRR
T1 sequence (Q02127 whole entry): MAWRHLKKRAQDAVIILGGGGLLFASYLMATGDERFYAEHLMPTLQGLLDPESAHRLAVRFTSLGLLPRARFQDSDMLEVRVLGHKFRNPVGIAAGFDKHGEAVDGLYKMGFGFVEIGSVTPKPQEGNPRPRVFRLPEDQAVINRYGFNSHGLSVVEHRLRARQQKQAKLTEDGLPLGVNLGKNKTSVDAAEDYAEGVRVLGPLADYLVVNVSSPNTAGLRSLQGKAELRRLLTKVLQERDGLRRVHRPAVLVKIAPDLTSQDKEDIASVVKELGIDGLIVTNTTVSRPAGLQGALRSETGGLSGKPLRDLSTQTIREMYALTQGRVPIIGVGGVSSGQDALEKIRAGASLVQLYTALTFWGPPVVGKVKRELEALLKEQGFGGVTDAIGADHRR

SMILES: COc1ccccc1-c1cc(F)c(NC(=O)C2=C(C(=O)O)COC2)c(F)c1 [Compound 47, 4-((3,5-difluoro-2′-methoxy-[1,1′-biphenyl]-4-yl)carbamoyl)-2,5-dihydrofuran-3-carboxylic acid]
- IC50 (recombinant human DHODH): < 800 nM
- IC50 (recombinant murine DHODH): > 1500 nM
- IC50 (DHODH): < 800 nM

SMILES: O=C(O)C1=C(C(=O)Nc2ccc(-c3ccccc3)cc2)CCC1 [2-(Biphenyl-4-ylcarbamoyl)-cyclopent-1-enecarboxylic acid]
- Reduction of human lymphocyte cell proliferation [1]: Reduction of human lymphocyte cell proliferation

SMILES: COc1cccc(-c2ccc(NC(=O)C3=C(C(=O)O)CCC3)c(F)c2)c1 [Compound 26, 2-((3-fluoro-3′-methoxy-[1,1′-biphenyl]-4-yl)carbamoyl)cyclopent-1-enecarboxylic acid]
- IC50 (recombinant murine DHODH): > 1500 nM
- pIC50 [2]: 5.39
- % water uptake at 95% r.h. ([3]; 95% r.h.): 0.1%
- % water uptake at 85% r.h. ([3]; about 85% r.h.): 0.03%
- Peak area ([4]; HPLC after 18 months storage at ambient conditions (20-25° C., 30-60% relative humidity)): >99%
- Occurrence of hydrolysis product in HPLC after 18 months storage ([4]; ambient conditions (20-25° C., 30-60% relative humidity), LOD for hydrolysis product: 0.1 μg/ml): Below LOD*

Reference: US20120035175A1, “Novel salts as Anti-Inflammatory, Immunomodulatory and Anti-Proliferatory Agents” (4SC AG, priority 2010, published 2012)
